In US4064169A, “Bis-(meta-amidinophenoxy)-compounds and pharmacologically acceptable acid addition salts thereof” (Eisai Co., Ltd., priority 1976, dated 1977):
Counter-ions that a name gives are not always drawn. Like-named read-outs stand apart in the source and are kept apart here.

What was measured:
Type in all cases: cell-based
[1] = tested on: Candida albicans AHU 3656; experiment: Antifungal Test (agar dilution M.I.C.); settings: for MIC: Candida albicans
Protocol: (§1) Respective agar plates were prepared by dissolving compounds under test in aseptic water to make a two fold dilution series, taking each 1 milliliter of said diluted solutions and 9 ml of Sabouraud medium into a petri dish, and sufficiently admixing the same.
(§2) On the other hand, an inoculum was prepared by cultivating an examined fungus (microorganism) on the Sabouraud slant medium and suspending two loopful of the incubated fungus in 10 ml of sterilized physiological saline water.
(§3) One loopful of the inoculum was streaked on the above-mentioned agar plate. After the agar plate was incubated at a defined temperature for a predetermined period of time to determine the minimal inhibitory concentration (M.I.C.).
(§4) Incubation temperature:
(§5) Incubation time: 3 days (72 hours) and
(§6) Incubation time: 3 days (72 hours)
(§7) activity incubation conditions:
(§8) Incubation time 3 days (72 hours)
(§9) Incubation time 7 days (168 hours)
(§10) Incubation time 2 days (48 hours)

[2] = tested on: Candida albicans NAKAGAWA IFM 4017; experiment: Antifungal Test (agar dilution M.I.C.); settings: Candida albicans
Protocol: as §1, §2, §3, §4, §5, §6, §7, §8, §9, §10

[3] = tested on: Candida albicans Yu-1200 IFM 4020; experiment: Antifungal Test (agar dilution M.I.C.); settings: Candida albicans
Protocol: as §1, §2, §3, §4, §5, §6, §7, §8, §9, §10

[4] = tested on: Saccharomyces cerevisiae; experiment: Antifungal Test (agar dilution M.I.C.); settings: Table 1, 27° C.
Protocol: as §1, §2, §3, §4
(§11) Incubation time: 3 days (72 hours) and […]

[5] = tested on: Candida ulitis AHU 3053; experiment: Antifungal Test (agar dilution M.I.C.); settings: Table 1, 27° C.
Protocol: as §1, §2, §3, §4, §11

[6] = tested on: Candida tropicalis AHU 3071; experiment: Antifungal Test (agar dilution M.I.C.); settings: Table 1, 27° C.
Protocol: as §1, §2, §3, §4, §11

[7] = tested on: Cryptococcus neoformans; experiment: Antifungal Test (agar dilution M.I.C.); settings: Table 1, 27° C.
Protocol: as §1, §2, §3, §4, §11

[8] = tested on: Candida albicans IFM 4080; experiment: Antifungal test when a serum is added; settings: 27° C, read-out: M.I.C. of serum added
Protocol: as §1, §2, §3
(§12) Minimal inhibitory concentration (M.I.C.) was determined by preparing the agar plate medium in the same manner of the preceding pharmacological test 1, except for the addition of the horse serum. The concentration of the component in the medium was finally corrected, so that it may amount to the concentration of the component when the horse serum was not added.
(§13) Incubation temperature: […]

[9] = tested on: Candida guilliermondii AHU 3654; experiment: Antifungal test when a serum is added; settings: Meyerozyma guilliermondii, 27° C, read-out: M.I.C. of serum added
Protocol: as §1, §2, §3, §12, §13

[10] = tested on: Candida albicans AHU 3656; experiment: Antifungal test when a serum is added; settings: 27° C, read-out: M.I.C. of serum added
Protocol: as §1, §2, §3, §12, §13

[11] = tested on: Candida albicans NAKAGAWA IFM 4017; experiment: Antifungal test when a serum is added; settings: 27° C, read-out: M.I.C. of serum added
Protocol: as §1, §2, §3, §12, §13

[12] = tested on: Candida tropicalis AHU 3071; experiment: Antifungal test when a serum is added; settings: 27° C, read-out: M.I.C. of serum added
Protocol: as §1, §2, §3, §12, §13

[13] = tested on: Candida Krusei AHU 3993; experiment: Antifungal test when a serum is added; settings: Pichia kudriavzevii, 27° C, read-out: M.I.C. of serum added
Protocol: as §1, §2, §3, §12, §13

[14] = tested on: Cryptococcus neoformans; experiment: Antifungal test when a serum is added; settings: 27° C, read-out: M.I.C. of serum added
Protocol: as §1, §2, §3, §12, §13

[15] = tested on: Candida albicans Yu-1200 IFM 4020; experiment: Antifungal test when a serum is added; settings: 27° C, read-out: M.I.C. of serum added
Protocol: as §1, §2, §3, §12, §13

[16] = tested on: Candida utilis AHU 3053; experiment: Antifungal test when a serum is added; settings: Williopsis jadinii, 27° C, read-out: M.I.C. of serum added
Protocol: as §1, §2, §3, §12, §13

[17] = 168 h, 10 % horse serum, 7 days
[18] = 168 h, 30 % horse serum, 7 days

SMILES: N=C(N)c1cccc(OCC2CCC(COc3cccc(C(=N)N)c3)CC2)c1 (centres unmarked) [Compound A, 1,4-Bis-(m,m'-amidinophenoxymethyl)-cyclohexane-dihydrochloride]
- MIC ([1]; AHU3656, 48 h, Table 3, 37° C., 2 days): 3.13 µg/mL
- MIC ([1]; AHU3656, 72 h, Table 3, 27° C., 3 days): 3.13 µg/mL
- MIC ([1]; AHU3656, 168 h, Table 3, 27° C., 7 days): 6.25 µg/mL
- M.I.C. ([1]; Table 1, 27° C., 3 days incubation): 3.13 µg/mL
- M.I.C. ([1]; Table 1, 27° C., 7 days incubation): 6.25 µg/mL
- M.I.C. ([1]; Table 2, 37° C., 3 days (72 hours)): 3.13 µg/mL
- M.I.C. ([1]; Table 3, 37° C., 3 days): 3.13 µg/mL
- MIC ([2]; 48 h, Table 3, 37° C., 2 days): 0.8 µg/mL
- MIC ([2]; 72 h, Table 1, 27° C., 3 days incubation): 3.13 µg/mL
- MIC ([2]; 72 h, Table 2, 37° C., 3 days (72 hours)): 1.56 µg/mL
- MIC ([2]; 72 h, Table 3, 27° C., 3 days): 3.13 µg/mL
- MIC ([2]; 72 h, Table 3, 37° C., 3 days): 1.56 µg/mL
- MIC ([2]; 168 h, Table 1, 27° C., 7 days incubation): 3.13 µg/mL
- MIC ([2]; 168 h, Table 3, 27° C., 7 days): 3.13 µg/mL
- MIC ([3]; YU1200IFM4020, 48 h, Table 3, 37° C., 2 days): 0.8 µg/mL
- MIC ([3]; YU1200IFM4020, 72 h, Table 1, 27° C., 3 days incubation): < 1.56 µg/mL
- MIC ([3]; YU1200IFM4020, 72 h, Table 2, 37° C., 3 days (72 hours)): 0.8 µg/mL
- MIC ([3]; YU1200IFM4020, 72 h, Table 3, 27° C., 3 days): 1.56 µg/mL
- MIC ([3]; YU1200IFM4020, 72 h, Table 3, 37° C., 3 days): 0.8 µg/mL
- MIC ([3]; YU1200IFM4020, 168 h, Table 1, 27° C., 7 days incubation): 3.13 µg/mL
- MIC ([3]; YU1200IFM4020, 168 h, Table 3, 27° C., 7 days): 3.13 µg/mL
- MIC ([4]; 72 h, 3 days incubation): < 1.56 µg/mL
- MIC ([4]; 168 h, 7 days incubation): < 1.56 µg/mL
- MIC ([5]; AHU3053, 72 h, 3 days incubation): 3.13 µg/mL
- MIC ([5]; AHU3053, 168 h, 7 days incubation): 3.13 µg/mL
- MIC ([6]; AHU3071, 72 h, 3 days incubation): 3.13 µg/mL
- MIC ([6]; AHU3071, 168 h, 7 days incubation): 3.13 µg/mL
- MIC ([7]; 72 h, 3 days incubation): 3.13 µg/mL
- MIC ([7]; 168 h, 7 days incubation): 3.13 µg/mL
- MIC ([8]; IFM4080, 72 h, 0 % horse serum, 3 days): 3.13 µg/mL
- MIC ([8]; IFM4080, 72 h, 10 % horse serum, 3 days): 12.5 µg/mL
- MIC ([8]; IFM4080, 72 h, 30 % horse serum, 3 days): 12.5 µg/mL
- MIC ([8]; IFM4080, 168 h, 0 % horse serum, 7 days): 6.25 µg/mL
- MIC ([8]; IFM4080, 168 h, 10 % horse serum, 7 days): 12.5 µg/mL
- MIC ([8]; IFM4080, 168 h, 30 % horse serum, 7 days): 12.5 µg/mL
- MIC ([9]; AHU3654, 72 h, 0 % horse serum, 3 days): 25 µg/mL
- MIC ([9]; AHU3654, 72 h, 10 % horse serum, 3 days): 25 µg/mL
- MIC ([9]; AHU3654, 72 h, 30 % horse serum, 3 days): 50 µg/mL
- MIC ([9]; AHU3654, 168 h, 0 % horse serum, 7 days): 25 µg/mL
- MIC ([9]; AHU3654, 168 h, 10 % horse serum, 7 days): 25 µg/mL
- MIC ([9]; AHU3654, 168 h, 30 % horse serum, 7 days): 50 µg/mL
- MIC ([10]; AHU3656, 72 h, 0 % horse serum, 3 days): 3.13 µg/mL
- MIC ([10]; AHU3656, 72 h, 10 % horse serum, 3 days): 25 µg/mL
- MIC ([10]; AHU3656, 72 h, 30 % horse serum, 3 days): 25 µg/mL
- MIC ([10]; AHU3656, 168 h, 0 % horse serum, 7 days): 6.25 µg/mL
- MIC ([10]; AHU3656, 168 h, 10 % horse serum, 7 days): 25 µg/mL
- MIC ([10]; AHU3656, 168 h, 30 % horse serum, 7 days): 25 µg/mL
- MIC ([11]; 72 h, 0 % horse serum, 3 days): 3.13 µg/mL
- MIC ([11]; 72 h, 10 % horse serum, 3 days): 25 µg/mL
- MIC ([11]; 72 h, 30 % horse serum, 3 days): 6.25 µg/mL
- MIC ([11]; 168 h, 0 % horse serum, 7 days): 3.13 µg/mL
- MIC [11, 17]: 25 µg/mL
- MIC [11, 18]: 6.2 µg/mL
- MIC ([12]; AHU3071, 72 h, 0 % horse serum, 3 days): 3.13 µg/mL
- MIC ([12]; AHU3071, 72 h, 10 % horse serum, 3 days): 6.25 µg/mL
- MIC ([12]; AHU3071, 72 h, 30 % horse serum, 3 days): 12.5 µg/mL
- MIC ([12]; AHU3071, 168 h, 0 % horse serum, 7 days): 3.13 µg/mL
- MIC ([12]; AHU3071, 168 h, 10 % horse serum, 7 days): 6.25 µg/mL
- MIC ([12]; AHU3071, 168 h, 30 % horse serum, 7 days): 12.5 µg/mL
- MIC ([13]; 72 h, 0 % horse serum, 3 days): > 100 µg/mL
- MIC ([13]; 72 h, 10 % horse serum, 3 days): 200 µg/mL
- MIC ([13]; 72 h, 30 % horse serum, 3 days): 100 µg/mL
- MIC ([13]; 168 h, 0 % horse serum, 7 days): > 100 µg/mL
- MIC [13, 17]: > 200 µg/mL
- MIC [13, 18]: 100 µg/mL
- MIC ([14]; 72 h, 0 % horse serum, 3 days): 3.13 µg/mL
- MIC ([14]; 72 h, 10 % horse serum, 3 days): 6.25 µg/mL
- MIC ([14]; 72 h, 30 % horse serum, 3 days): 12.5 µg/mL
- MIC ([14]; 168 h, 0 % horse serum, 7 days): 3.13 µg/mL
- MIC [14, 17]: 12.5 µg/mL
- MIC [14, 18]: 12.5 µg/mL
- MIC ([15]; YU1200IFM4020, 72 h, 0 % horse serum, 3 days): < 1.56 µg/mL
- MIC ([15]; YU1200IFM4020, 72 h, 10 % horse serum, 3 days): 6.25 µg/mL
- MIC ([15]; YU1200IFM4020, 72 h, 30 % horse serum, 3 days): 25 µg/mL
- MIC ([15]; YU1200IFM4020, 168 h, 0 % horse serum, 7 days): 3.13 µg/mL
- MIC ([15]; YU1200IFM4020, 168 h, 10 % horse serum, 7 days): 6.25 µg/mL
- MIC ([15]; YU1200IFM4020, 168 h, 30 % horse serum, 7 days): 25 µg/mL
- MIC ([16]; AHU3053, 72 h, 0 % horse serum, 3 days): 3.13 µg/mL
- MIC ([16]; AHU3053, 72 h, 10 % horse serum, 3 days): 3.13 µg/mL
- MIC ([16]; AHU3053, 72 h, 30 % horse serum, 3 days): < 0.8 µg/mL
- MIC ([16]; AHU3053, 168 h, 0 % horse serum, 7 days): 3.13 µg/mL
- MIC ([16]; AHU3053, 168 h, 10 % horse serum, 7 days): 6.25 µg/mL
- MIC ([16]; AHU3053, 168 h, 30 % horse serum, 7 days): < 0.8 µg/mL
